Experimental data as given in US5162115A, “Antineoplastic solution and method for treating neoplasms” (priority 1991, dated 1992).
“Also recorded” adds a separate entry of the source. Read-outs that look alike come from different tables or passages of the source.

Assays:
[1] = delivered systemically; cited from earlier work
[2] = cited from earlier work
ependymoblastoma = conditions: intratumoral injection(s), up to ten; suspended in 0.4% aqueous methylcellulose in most suitable formulation; cited from earlier work
T9 gliosarcoma [3] = assay: Survival of rats bearing intracerebral T9 gliosarcoma after intratumoral BCNU solution; type: in vivo, rat (male CDF, Fischer 344); conditions: for % ILS (percent increase in life span): vs control
[4] = Operative mortality following intratumoral injection; type: in vivo, rat (male CDF, Fischer 344); conditions: following intratumoral BCNU solution injection; 4/72
Procedure: Rats were anesthetized with ether and pentobarbital sodium (25-30 mg/kg) and placed into the stereotactic frame. The clips and bone wax were carefully removed. The BCNU solution was delivered directly into the tumor through a
Hamilton microsyringe set to the same coordinates and using the same technique as used in the initial tumor implantation. As before, the operative field was cleaned with povidone-iodine solution and the scalp was closed with clips.
The following paradigm was used to assess therapeutic efficacy of the intra-tumorally delivered BCNU antineoplastic solution. All animals received tumor implantation on day zero (0). Controls received no treatment, vehicle controls received a single intratumoral injection of absolute ethanol on day 7. One experimental group received a single injection of intratumoral BCN dissolved in absolute ethanol at a dose of 5 mg/kg body weight on day 7.

Lethal dose of BCNU = type: in vivo; conditions: intraperitoneal BCNU in rats
Procedure: All intratumoral injections used this 66.7 mg/ml formulation directly. This concentration is about three to four logs greater than the tumoricidal dose 50%. […] This cannot be extrapolated to man, however, because of differences in cross-species toxicity.

[5] = Stability of BCNU in ethanol, organic vehicles and aqueous solution; type: physicochemical; conditions: ethanol vehicle of the exemplary solution
tumor cells = assay: Tumoricidal dose 50% (TD50) comparison; conditions: 66.7 mg/ml BCNU in absolute ethanol
Description: Operationally, where cytotoxic, the antineoplastic agent is preferably dissolved in the organic solvent to a concentration such that when a therapeutically effective volume of the antineoplastic solution of the invention is delivered into a neoplastic mass, there results a dose of the agent solute in said mass of at least two logs greater than its tumoricidal dose 50% (TD50), that is, the concentration of agent in said mass that kills 50% of the tumor cells. This ensures that a supralethal concentration of the agent is delivered throughout at least a substantial volume of the tumor mass when the resulting antineoplastic solution is injected directly into the substance of the tumor. As the organic vehicle permeates the tumor mass it transports a therapeutically effective, neoplastically lethal concentration of the cytotoxic agent solute therewith. In this way high levels of the cytotoxic antineoplastic agent can be delivered discretely and with relative safety to the tumor mass. In another sense the water miscible organic vehicle component of the solution can be considered to increase the solubility of the agent within the tumor mass, thereby allowing therapeutically effective toxic levels of the antineoplastic agent to invest the tumor. […]

T9 gliosarcoma [6] = conditions: cited from earlier work
[7] = rat, in vivo; cited from earlier work
[8] = cited from earlier work; remark: listed apart in the source
[9] = cited from earlier work; remark: listed apart in the source
[10] = Group 4: IT BCNU 5 mg/kg day 7 + IP BCNU 5 mg/kg day 12, n=14

## bleomycin
[1]
  organ specific toxicity: lung toxicity

## COc1cccc2c1C(=O)c1c(O)c3c(c(O)c1C2=O)C[C@@](O)(C(=O)CO)C[C@@H]3O[C@H]1C[C@H](N)[C@H](O)[C@H](C)O1 [adriamycin]
[1]
  organ specific toxicity: cardiotoxicity

## O=NN(CCCl)C(=O)NC1CCCCC1 [CCNU, 1-(2-chloroethyl)-3-cyclohexyl-1-nitrosourea]
[2]
  water solubility: water insoluble
ependymoblastoma
  increase in life span: only modest increases in life span

## C[C@H]1CC[C@H](NC(=O)N(CCCl)N=O)CC1 [Me-CCNU, 1-(2-chloroethyl)-3-(trans-4-methylcyclohexyl)-1-nitrosourea]
[2]
  water solubility: water insoluble
ependymoblastoma
  increase in life span: only modest increases in life span

## O=NN(CCCl)C(=O)NCCCl [BCNU, 1,3-bis(2-chloroethyl)-1-nitrosourea]
T9 gliosarcoma [3]; Group 3: single IT BCNU 5 mg/kg in absolute ethanol, day 7, n=42
  % ILS (percent increase in life span): 322%
T9 gliosarcoma [3]; Group 3: single IT BCNU 5 mg/kg, day 7, n=42
  % Cures: 43%
T9 gliosarcoma [3]; Group 3: single intratumoral (IT) injection of BCNU in absolute ethanol, 5 mg/kg, day 7, n=42
  MDS (median day of survival following tumor implantation): 76 days
T9 gliosarcoma [3]; [10]
  % Cures: 36%
  % ILS (percent increase in life span): 472%
T9 gliosarcoma [3]; Group 4: IT BCNU in absolute ethanol 5 mg/kg day 7 + IP BCNU 5 mg/kg in 7.5% aqueous ethanol day 12, n=14
  MDS (median day of survival following tumor implantation): 103 days
T9 gliosarcoma [3]; Groups 3 + 4, 600-700 days
  animals living a normal lifespan: nineteen
T9 gliosarcoma [3]; Groups 3 + 4, days 121, 136, 307, 384
  animals sacrificed healthy, no observable viable T9 gliosarcoma: four
T9 gliosarcoma [3]; Groups 3 + 4 combined, n=56
  % Cures: 41%
  MDS (median day of survival following tumor implantation): 96 days
  % ILS (percent increase in life span): 433%
T9 gliosarcoma [3]; IT + IP vs IT only
  therapeutic benefit of adding intraperitoneal BCNU to intratumoral BCNU solution: did not statistically enhance the therapeutic benefit
T9 gliosarcoma [3]; intratumoral BCNU solution treated group, 600-700 days
  animals which live a normal life span: 41%
T9 gliosarcoma [3]; intratumoral BCNU solution treated group, days 18-24
  animals that die, phase one: 23%
T9 gliosarcoma [3]; intratumoral BCNU solution treated group, days 25 to 166
  animals that die, second phase: 30%
T9 gliosarcoma [3]; intratumoral BCNU solution treated group, days 251-325
  animals that die, third phase: 5%
[4]
  Operative mortality: 5.5%
Lethal dose of BCNU
  dose of 5 mg/kg as percentage of the LD10: ~40%
[5]
  solubility in ethanol: soluble to highly cytotoxic levels in ethanol
  stability and bioavailability in ethanol: remains stable and bioavailable therein
Tumor cells
  concentration of the formulation above the tumoricidal dose 50%: about three to four
T9 gliosarcoma [6]; BCNU 5 mg/kg, delivered intra-arterially
  ILS: 57%
T9 gliosarcoma [6]; BCNU 5 mg/kg, delivered systemically
  improvement in life span: no improvement in life span
T9 gliosarcoma [6]; BCNU 13.3 mg/kg, delivered intravenously or intra-arterially
  ILS: 180%
T9 gliosarcoma [6]; any mode of delivery previously known
  cures in animals bearing this tumor, prior to this experiment: neither BCNU nor any other antineoplastic agent has ever produced cures in animals bearing this tumor; also recorded: neither BCNU nor any other single antineoplastic agent has ever been known to produce a single cure in this tumor model
[7]
  lethal dose 10%: 13.3 mg/kg
[8]
  half life in serum: about 15 minutes
[9]; aqueous solution
  stability in aqueous solution: not very stable in aqueous solution
[9]; ethanol
  stability in ethanol: stable in ethanol
[9]; organic water miscible solvent vehicles, compared with aqueous solution
  stability in organic water miscible solvent vehicles: far more stable in the organic water miscible solvent vehicles
[2]
  water solubility: inherently low water solubility
